Results published in paper PMC8880098, “Synthesis, Antibacterial Evaluation, and Computational Studies of a Diverse Set of Linezolid Conjugates” (Pharmaceuticals, 2022).
In brackets after ≈: the same amount, converted by molar mass. Read-outs that look alike come from different tables or passages of the source.

What was measured:
[1] = tested on: Bacillus subtilis ATCC 6633; assay: Antibacterial MIC, microdilution susceptibility test (CLSI); type: cell-based; conditions: Bacillus subtilis
Text: (§1) The synthesized linezolid conjugates (3a–k, 5a–f, 7a–c, 9a–c, 11a–f, 13, and 15) were subjected for antimicrobial properties determination against Gram-positive (Staphylococcus aureus ATCC 6538, Bacillus subtilis ATCC 6633) and Gram-negative (Pseudomonas aeruginosa ATCC 15692, Escherichia coli ATCC 47076) bacteria by the standard technique.
(§2) Antibacterial properties of the synthesized compounds (3a–k, 5a–f, 7a–c, 9a–c, 11a–f, 13 and 15) were screened against Gram-positive (Staphylococcus aureus ATCC 6538, Bacillus subtilis ATCC 6633) and Gram-negative (Pseudomonas aeruginosa ATCC 15,692 and Escherichia coli ATCC 47076) bacteria utilizing the standard technique. Linezolid was used as a standard reference/drug in the current study. The tested bacterial strains were obtained from MERCIN Center, Faculty of Agriculture, Ain Shams University, Cairo, Egypt.
(§3) To determine the antibacterial activity, stock solutions of the tested compounds and standard reference were prepared with up to 100% DMSO and stored at […]. If necessary, the solutions were heated to 40–60 °C before testing to facilitate complete dissolution. Double distilled water was used in all dilutions prepared. […] A microdilution susceptibility test was used for MIC determination (Mueller–Hinton broth in 96-well plates) according to the CLSI (the Clinical and Laboratory Standards Institute, Malvern, PA, USA). The bacterial inoculum was adjusted to approximately 2.5–3 × 10^4 cells/mL in Mueller–Hinton broth and incubated in a ratio of 1:1 with the test derivatives in polystyrene 96-well flat-bottom microplates. Positive growth control (without test derivatives) and negative control (without bacteria) were included. The microplates were placed in an incubator set to 37 °C for 24 h. Absorbance was measured at 620 nm at the end of the incubation period. The cut-off level for follow-up studies was defined as a minimum of 90% inhibition of growth compared to the untreated sample. Experiments were conducted once in triplicate. For selected compounds, minimum inhibitory concentration (MIC) values were determined by dose–response experiments. Experiments were performed at least twice, in triplicate per concentration tested.

[2] = tested on: Escherichia coli ATCC 47076; assay: as above; type: cell-based
Text: as §1, §2, §3

[3] = tested on: Pseudomonas aeruginosa ATCC 15692; assay: as above; type: cell-based
Text: as §1, §2, §3

[4] = tested on: Staphylococcus aureus ATCC 6538; assay: as above; type: cell-based; conditions: Staphylococcus aureus
Text: as §1, §2, §3

[5] = tested on: Bacillus subtilis ATCC 6633; assay: microbe, parasite or virus in culture; parameters: species or system bacteria; Broth microdilution MIC in Mueller-Hinton broth, absorbance at 620 nm; conditions: ATCC6633, 24 h, read-out: Observed MIC, uM (B. subtilis)
Text: as §3, with “Antibacterial properties of the synthesized compounds (3a–k, 5a–f, 7a–c, 9a–c, 11a–f, 13 and 15) were screened against Gram-positive (Staphylococcus aureus ATCC 6538, Bacillus subtilis ATCC 6633) and Gram-negative (Pseudomonas aeruginosa ATCC 15,692 and Escherichia coli ATCC 47076) bacteria utilizing the standard technique. Linezolid was used as a standard reference/drug in the current study. The tested bacterial strains were obtained from MERCIN Center, Faculty of Agriculture, Ain Shams University, Cairo, Egypt. To” for “To”

[6] = tested on: Staphylococcus aureus ATCC 6538; assay: microbe, parasite or virus in culture; parameters: species or system bacteria; Broth microdilution MIC in Mueller-Hinton broth, absorbance at 620 nm; conditions: ATCC6538, 24 h, read-out: Observed MIC, uM (S. aureus)
Text: as §3, with “Antibacterial properties of the synthesized compounds (3a–k, 5a–f, 7a–c, 9a–c, 11a–f, 13 and 15) were screened against Gram-positive (Staphylococcus aureus ATCC 6538, Bacillus subtilis ATCC 6633) and Gram-negative (Pseudomonas aeruginosa ATCC 15,692 and Escherichia coli ATCC 47076) bacteria utilizing the standard technique. Linezolid was used as a standard reference/drug in the current study. The tested bacterial strains were obtained from MERCIN Center, Faculty of Agriculture, Ain Shams University, Cairo, Egypt. To” for “To”

[7] = ATCC6633, 24 h, Mueller–Hinton broth, 37 °C, 24 h, read-out: MIC, μg/mL ± SE, B. Subtilis (ATCC 6633)
[8] = ATCC47076, Mueller–Hinton broth, 37 °C, 24 h, read-out: MIC, μg/mL ± SE, E. Coli (ATCC 47076)
[9] = ATCC47076, value in parentheses, read-out: MIC (μmol), E. Coli (ATCC 47076) (converted)
[10] = ATCC15692, Mueller–Hinton broth, 37 °C, 24 h, read-out: MIC, μg/mL ± SE, P. Aeruginosa (ATCC 15692)
[11] = ATCC15692, value in parentheses, read-out: MIC (μmol), P. Aeruginosa (ATCC 15692) (converted)
[12] = ATCC6538, 24 h, Mueller–Hinton broth, 37 °C, 24 h, read-out: MIC, μg/mL ± SE, S. Aureus (ATCC 6538)
[13] = ATCC6633, as quoted in running text, read-out: MIC against B. subtilis
[14] = ATCC6538, as quoted in running text, read-out: MIC against S. aureus
[15] = ATCC6538, value in parentheses, read-out: MIC (μmol), S. Aureus (ATCC 6538) (converted)

MIC ([1]; ATCC6633, value in parentheses, read-out: MIC (μmol), B. Subtilis (ATCC 6633) (converted)) [µM]	MIC [4, 15] [µM]	MIC ([3]; ATCC15692, read-out: MIC against P. aeruginosa) [µM]	SMILES	MIC [1, 7] [µg/mL]	MIC [2, 8] [µg/mL]	MIC [2, 9] [µM]	MIC [3, 10] [µg/mL]	MIC [3, 11] [µM]	MIC [4, 12] [µg/mL]	melting point [°C]	MIC [5] [µM]	MIC [6] [µM]	MIC [1, 13] [µM]	MIC [4, 14] [µM]
–	–	–	O=C(N[C@@H](Cc1ccccc1)C(=O)NC[C@H]1CN(c2ccc(N3CCOCC3)c(F)c2)C(=O)O1)OCc1ccccc1 [Compound 3e, Benzyl ((S)-1-((((S)-3-(3-fluoro-4-morpholinophenyl)-2-oxooxazolidin-5-yl)methyl)amino)-1-oxo-3-phenylpropan-2-yl)carbamate]	32 ± 1.9	32 ± 1	55.5	64 ± 2.1	111	32 ± 2.2	120 to 122	55.5 (≈ 32 µg/mL)	55.5 (≈ 32 µg/mL)	–	–
–	–	–	CC(C)(C)OC(=O)NCC(=O)NC[C@H]1CN(c2ccc(N3CCOCC3)c(F)c2)C(=O)O1 [Compound 3f, Tert-butyl (S)-(2-(((3-(3-fluoro-4-morpholinophenyl)-2-oxooxazolidin-5-yl)methyl)amino)-2-oxoethyl)carbamate]	8 ± 0.4	32 ± 2.8	70.7	32 ± 1.6	70.7	32 ± 1.4	54 to 56	17.7 (≈ 8 µg/mL)	70.7 (≈ 32 µg/mL)	–	–
–	–	–	C[C@H](NC(=O)OC(C)(C)C)C(=O)NC[C@H]1CN(c2ccc(N3CCOCC3)c(F)c2)C(=O)O1 [Compound 3g, Tert-butyl ((S)-1-((((S)-3-(3-fluoro-4-morpholinophenyl)-2-oxooxazolidin-5-yl)methyl)amino)-1-oxopropan-2-yl)carbamate]	32 ± 2.4	32 ± 2.7	68.6	32 ± 1.2	68.6	32 ± 1.5	71 to 72	68.6 (≈ 32 µg/mL)	68.6 (≈ 32 µg/mL)	–	–
–	–	–	CC(C)(C)OC(=O)N[C@@H](Cc1ccccc1)C(=O)NC[C@H]1CN(c2ccc(N3CCOCC3)c(F)c2)C(=O)O1 [Compound 3j, Tert-butyl ((S)-1-((((S)-3-(3-fluoro-4-morpholinophenyl)-2-oxooxazolidin-5-yl)methyl)amino)-1-oxo-3-phenylpropan-2-yl)carbamate]	32 ± 1.3	32 ± 0.9	59	64 ± 1.8	118	64 ± 2.5	69 to 71	59 (≈ 32 µg/mL)	118 (≈ 64 µg/mL)	–	–
–	–	–	O=C(NC[C@H]1CN(c2ccc(N3CCOCC3)c(F)c2)C(=O)O1)c1ccccc1 [Compound 5a, (S)-N-((3-(3-Fluoro-4-morpholinophenyl)-2-oxooxazolidin-5-yl)methyl)benzamide]	1 ± 0.1	32 ± 1.6	80.1	32 ± 0.8	80.1	4 ± 0.2	174 to 176	2.5 (≈ 1 µg/mL)	10 (≈ 4 µg/mL)	2.33 to 2.5	9.34 to 10
2.33	9.34	–	CNc1ccc(C(=O)NC[C@H]2CN(c3ccc(N4CCOCC4)c(F)c3)C(=O)O2)cc1 [Compound 5e, (S)-N-((3-(3-Fluoro-4-morpholinophenyl)-2-oxooxazolidin-5-yl)methyl)-4-(methylamino) benzamide]	1 ± 0.1	32 ± 1.6	74.7	32 ± 2.2	74.7	4 ± 0.2	195 to 197	–	–	2.33 to 2.5	9.34 to 10
–	20	20	O=C(NC[C@H]1CN(c2ccc(N3CCOCC3)c(F)c2)C(=O)O1)c1ccncc1 [Compound 7a, (S)-N-((3-(3-Fluoro-4-morpholinophenyl)-2-oxooxazolidin-5-yl)methyl)isonicotin-amide]	2 ± 0.2	32 ± 0.9	79.9	8 ± 0.1	20	8 ± 0.3	198 to 200	5 (≈ 2 µg/mL)	–	–	–
–	–	–	CS(=O)(=O)c1ccc(CNC[C@H]2CN(c3ccc(N4CCOCC4)c(F)c3)C(=O)O2)cc1 [Compound 11b, (S)-3-(3-Fluoro-4-morpholinophenyl)-5-[{(4-(methylsulfonyl)benzyl}amino]methyl) oxazolidin-2-one]	32 ± 1.4	32 ± 1.1	69	64 ± 2.8	138	32 ± 1.2	–	69 (≈ 32 µg/mL)	69 (≈ 32 µg/mL)	–	–
–	–	–	O=C1O[C@@H](CNCc2ccc(C(F)(F)F)cc2)CN1c1ccc(N2CCOCC2)c(F)c1 [Compound 11c, (S)-3-(3-Fluoro-4-morpholinophenyl)-5-[{(4-(trifluoromethyl)benzyl}amino]methyl) oxazolidin-2-one]	16 ± 0.4	32 ± 0.9	70.6	64 ± 1.5	141	32 ± 0.8	–	35.3 (≈ 16 µg/mL)	70.6 (≈ 32 µg/mL)	–	–
–	–	–	O=C1O[C@@H](CNCc2cccc(Cl)c2)CN1c1ccc(N2CCOCC2)c(F)c1 [Compound 11d, (S)-5-[{(3-Chlorobenzyl)amino}methyl]-3-(3-fluoro-4-morpholinophenyl) oxazolidin-2-one]	32 ± 1.2	32 ± 2.1	76.2	32 ± 1.7	76.2	32 ± 1	–	76.2 (≈ 32 µg/mL)	76.2 (≈ 32 µg/mL)	–	–
–	–	–	COc1cc(CNC[C@H]2CN(c3ccc(N4CCOCC4)c(F)c3)C(=O)O2)cc(OC)c1 [Compound 11f, (S)-5-[{(3,5-Dimethoxybenzyl)amino}methyl]-3-(3-fluoro-4-morpholinophenyl) oxazo-lidine-2-one]	32 ± 0.3	32 ± 0.8	71.8	32 ± 1.9	71.8	32 ± 1.7	–	71.8 (≈ 32 µg/mL)	71.8 (≈ 32 µg/mL)	–	–
–	–	–	O=C1O[C@@H](CNCCCO[N+](=O)[O-])CN1c1ccc(N2CCOCC2)c(F)c1 [Compound 13, (S)-3-[{(3-(3-Fluoro-4-morpholinophenyl)-2-oxooxazolidin-5-yl)methyl}amino] propyl nitrate]	32 ± 0.9	32 ± 0.6	80.3	32 ± 1.5	80.3	32 ± 1	–	80.3	80.3	–	–
